From patent publication US20040141944A1, “Inhibition of xenoreactive antibodies” (priority 1998, published 2004) come the findings set out here.

Series [1] relates to peripheral blood-derived ASCs. Kind of series: short-term in vitro effects of TPC on peripheral blood-derived ASCs (ELISPOT). It counts as cell-based. To be noted: 50 ug/mL TPC (410S), 2 hours at 37° C., heparinized peripheral blood from a normal donor. Here is the method:
To each well of the first 10 columns of a sterile hydrazine modified polystyrene 96-well plate (Corning Costar, Cambridge, Mass.), 100 μL per well of a solution containing 3.2 mg/mL αGal(1,3)Gal β 1-4 GlcNAc, 3.1 mg/mL EDC and 2.4 mg/mL NHS were added in a darkened cold room and the reaction proceeded for four hours. After careful washing with sterile H2O, the plates were completely covered with plastic strips and stored at 4° C. until use. Plates were blocked with sterile 400 ul/well of PBS/1% HSA for 2 hours at 37° C. Peripheral blood mononuclear cells were isolated by Ficoll-Hypaque (specific gravity, 1.077 g/mL; Pharmacia Fine Chemicals, Piscatawy, N.J.) density gradients at 400 g for 30 min. at 22° C. […] Plates were incubated overnight in the dark at room temperature and single Ab-secreting, spot forming cells (ASC) were visualized, analyzed and counted under low magnification using an inverted phase microscope. Data represents total isotype specific anti-gal Ab-secreting cells/10^6 PBMNCs, calculated from serially diluted cell samples.
short-term in vitro effects of TPC on peripheral blood-derived ASCs were assessed by incubating (2 hours at 37° C., with rotation at 6 rpm) heparinized peripheral blood from a normal donor in the presence or absence of 50 ug/mL TPC (410S). […]

For series [2], the system named is kidney from a transgenic pig expressing human CD59, human CD46 and human DAF. Kind of series: transgenic pig kidney transplant into TPC-treated baboon. It counts as in vivo. Here is the method: Immunoapheresis #1 reduced circulating IgM XNA levels to 40% of pretreatment levels. Two days later, a rebound to about 50% of pretreatment levels was observed, and after a second immunoapheresis plus administration of 250 mg TPC, circulating IgM xXNA levels were undetectable. Three days later, a rebound in IgM XNA to 35% pretreatment levels occurred, and administration of 250 mg TPC brought these levels to about 5%. […] On day 31, a kidney from a transgenic pig expressing human CD59, human CD46 and human DAF was transplanted into the baboon, and a bilateral nephrectomey was performed on the baboon native kidneys. Thus, the baboon was dependent upon the porcine kidneys for physiological function.

For the substance “(αGal(1,3)Gal β 1-4 GlcNAc)4-PEG [Example 410S]”, in series [1], the “effect on the number of detectable ASCs” value is recorded as “no effect”; the “effect on total cell yield and viability” value is “no effect”. Besides, the “pathology analysis of the explanted pig kidney” value in series [2] (Baboon 376-96, transplant on day 31, euthanized post-op day 4) is on record as “no evidence of hyperacute rejection”. The “function of the transplanted kidney” value in series [2] (Baboon 376-96, transplant on day 31 with bilateral nephrectomy) is recorded as “primary nonfunction”.
